Data published in PubChem BioAssay (NCI).
“And” between values parts separate entries of the source, which are not always exact repeats. Identical values can stand only once.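 Assay format: 96-well plates, 48-hour exposure. The concentration for 50% growth inhibition is given as GI50. At the TGI there is no net growth.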

What was measured:
Assay in all cases: inhibition of tumour cell growth, NCI panel, 48 h
SNB-75 CNS = tested on: SNB-75 CNS
T-47D breast = tested on: T-47D breast
LOX IMVI melanoma = tested on: LOX IMVI melanoma
A498 renal = tested on: A498 renal
MOLT-4 leukemia = tested on: MOLT-4 leukemia
HOP-62 NSCLC = tested on: HOP-62 NSCLC
HS 578T breast = tested on: HS 578T breast
SF-295 CNS = tested on: SF-295 CNS
SK-MEL-28 melanoma = tested on: SK-MEL-28 melanoma
M14 melanoma = tested on: M14 melanoma
OVCAR-3 ovarian = tested on: OVCAR-3 ovarian
SN12C renal = tested on: SN12C renal
NCI/ADR-RES ovarian = tested on: NCI/ADR-RES ovarian
RPMI-8226 leukemia = tested on: RPMI-8226 leukemia
UACC-62 melanoma = tested on: UACC-62 melanoma
NCI-H522 lung = tested on: NCI-H522 lung
HL-60(TB) leukemia = tested on: HL-60(TB) leukemia
UO-31 renal = tested on: UO-31 renal
IGROV1 ovarian = tested on: IGROV1 ovarian
SK-MEL-5 melanoma = tested on: SK-MEL-5 melanoma
MDA-MB-231 breast = tested on: MDA-MB-231 breast
CAKI-1 renal = tested on: CAKI-1 renal
OVCAR-4 ovarian = tested on: OVCAR-4 ovarian
EKVX NSCLC = tested on: EKVX NSCLC
NCI-H460 lung = tested on: NCI-H460 lung
BT-549 breast = tested on: BT-549 breast
786-0 renal = tested on: 786-0 renal
SR leukemia = tested on: SR leukemia
SW-620 colon = tested on: SW-620 colon
MALME-3M melanoma = tested on: MALME-3M melanoma
CCRF-CEM leukemia = tested on: CCRF-CEM leukemia
PC-3 prostate = tested on: PC-3 prostate
MCF7 breast = tested on: MCF7 breast
KM12 colon = tested on: KM12 colon
HT29 colon = tested on: HT29 colon
HCT-116 colon = tested on: HCT-116 colon
SK-OV-3 ovarian = tested on: SK-OV-3 ovarian
SF-268 CNS = tested on: SF-268 CNS
COLO 205 colon = tested on: COLO 205 colon
MDA-MB-435 = tested on: MDA-MB-435
A549 NSCLC = tested on: A549 NSCLC
SNB-19 CNS = tested on: SNB-19 CNS
NCI-H226 lung = tested on: NCI-H226 lung
K-562 leukemia = tested on: K-562 leukemia
U251 CNS = tested on: U251 CNS
OVCAR-5 ovarian = tested on: OVCAR-5 ovarian
TK-10 renal = tested on: TK-10 renal
ACHN renal = tested on: ACHN renal
HCC-2998 colon = tested on: HCC-2998 colon
NCI-H23 lung = tested on: NCI-H23 lung
DU-145 prostate = tested on: DU-145 prostate
OVCAR-8 ovarian = tested on: OVCAR-8 ovarian
HCT-15 colon = tested on: HCT-15 colon
SK-MEL-2 melanoma = tested on: SK-MEL-2 melanoma

Cc1ccnc(Nc2ccc([N+](=O)[O-])c(NCCN3CCOCC3)n2)c1
GI50 (SNB-75 CNS): 2.43 nM
TGI (SNB-75 CNS): 20100 nM
GI50 (T-47D breast): 26100 nM
TGI (T-47D breast): 74900 nM
GI50 (LOX IMVI melanoma): 5.2 nM
TGI (LOX IMVI melanoma): 27900 nM
GI50 (A498 renal): 3.25 nM
TGI (A498 renal): 220 nM
GI50 (MOLT-4 leukemia): 30.4 nM and 35.6 nM
TGI (MOLT-4 leukemia): > 100000 nM
GI50 (HOP-62 NSCLC): 6.57 nM
TGI (HOP-62 NSCLC): 71800 nM
GI50 (HS 578T breast): 27.7 nM
TGI (HS 578T breast): 22700 nM
GI50 (SF-295 CNS): 3.55 nM
TGI (SF-295 CNS): 29600 nM
TGI (SK-MEL-28 melanoma): 30300 nM
TGI (M14 melanoma): 45200 nM
GI50 (OVCAR-3 ovarian): 2.66 nM
TGI (OVCAR-3 ovarian): 7.8 nM
GI50 (SN12C renal): 42.5 nM and 48 nM
TGI (SN12C renal): > 100000 nM
GI50 (NCI/ADR-RES ovarian): 4.29 nM
GI50 (RPMI-8226 leukemia): 21.2 nM and 26.9 nM
TGI (RPMI-8226 leukemia): 24500 nM
GI50 (UACC-62 melanoma): 3.82 nM
TGI (UACC-62 melanoma): 18300 nM
GI50 (NCI-H522 lung): 2.09 nM
TGI (NCI-H522 lung): 6.86 nM
GI50 (HL-60(TB) leukemia): 14.4 nM
TGI (HL-60(TB) leukemia): 46.4 nM
GI50 (UO-31 renal): 46.1 nM
TGI (UO-31 renal): 30700 nM
GI50 (IGROV1 ovarian): 38.9 nM and 57.9 nM
TGI (IGROV1 ovarian): 42400 nM
GI50 (SK-MEL-5 melanoma): 5.64 nM
TGI (SK-MEL-5 melanoma): 206 nM and 315 nM
GI50 (MDA-MB-231 breast): 21.3 nM and 37.9 nM
TGI (MDA-MB-231 breast): 48500 nM
GI50 (CAKI-1 renal): 5.2 nM
TGI (CAKI-1 renal): > 100000 nM
GI50 (OVCAR-4 ovarian): 15.1 nM
GI50 (EKVX NSCLC): 29.2 nM
GI50 (NCI-H460 lung): 4.31 nM
TGI (NCI-H460 lung): > 100000 nM
GI50 (BT-549 breast): 20.8 nM and 19.1 nM
TGI (BT-549 breast): 23400 nM
GI50 (786-0 renal): 8.21 nM and 14.9 nM
TGI (786-0 renal): 23700 nM
GI50 (SR leukemia): 3.76 nM
TGI (SR leukemia): 63500 nM
GI50 (SW-620 colon): 4.97 nM
TGI (SW-620 colon): > 100000 nM
GI50 (MALME-3M melanoma): 6.17 nM
GI50 (CCRF-CEM leukemia): 18.2 nM and 26.5 nM
TGI (CCRF-CEM leukemia): 20600 nM
GI50 (PC-3 prostate): 6.03 nM
TGI (PC-3 prostate): 39500 nM
GI50 (MCF7 breast): 3.34 nM
TGI (MCF7 breast): 20500 nM
GI50 (KM12 colon): 4.64 nM
GI50 (HT29 colon): 4.38 nM
TGI (HT29 colon): 18300 nM
GI50 (HCT-116 colon): 6.63 nM
GI50 (SK-OV-3 ovarian): 8.04 nM
TGI (SK-OV-3 ovarian): 64700 nM
GI50 (SF-268 CNS): 9.26 nM and 59 nM
TGI (SF-268 CNS): 42400 nM
GI50 (COLO 205 colon): 5.02 nM
TGI (COLO 205 colon): 41.7 nM and 33.3 nM
GI50 (MDA-MB-435): 2.33 nM
TGI (MDA-MB-435): 6.8 nM
GI50 (A549 NSCLC): 14.1 nM
TGI (A549 NSCLC): > 100000 nM
GI50 (SNB-19 CNS): 31.2 nM
GI50 (NCI-H226 lung): 59.4 nM
GI50 (K-562 leukemia): 3.68 nM
TGI (K-562 leukemia): > 100000 nM
GI50 (U251 CNS): 5.24 nM
TGI (U251 CNS): > 100000 nM
GI50 (OVCAR-5 ovarian): 74 nM
GI50 (TK-10 renal): 18500 nM
TGI (TK-10 renal): 62000 nM
GI50 (ACHN renal): 7.44 nM
TGI (ACHN renal): 40800 nM
GI50 (HCC-2998 colon): 18.7 nM and 17.1 nM
TGI (HCC-2998 colon): 14700 nM
GI50 (NCI-H23 lung): 35.2 nM and 15.6 nM
TGI (NCI-H23 lung): 40800 nM
GI50 (DU-145 prostate): 6.93 nM and 28.4 nM
GI50 (OVCAR-8 ovarian): 33.4 nM and 20.1 nM
TGI (OVCAR-8 ovarian): > 100000 nM
GI50 (HCT-15 colon): 6.1 nM
TGI (HCT-15 colon): 31500 nM
GI50 (SK-MEL-2 melanoma): 5.66 nM and 30.4 nM
TGI (SK-MEL-2 melanoma): 27200 nM
